Assays:
[1] = test system: Aspergillus niger (ATCC 6275); assay: Minimum Inhibitory Concentration (MIC) by spiral gradient endpoint plating, with Kull synergistic index; type: cell-based
Description: Spores were removed from the Aspergillus niger slant by adding a small amount of phosphate buffer pH 7.0 (Thomas Scientific phosphate buffer & magnesium chloride, Lot # 023-0703) and scraping with a sterile nichrome wire loop. This process was repeated twice. Loosened spores were removed from the slant by aseptically pouring them into a sterile bottle containing 30 ml. of phosphate buffer and a volume of roughly 40 ml. of 6-mm, borosilicate glass beads. The bead bottle was shaken to disperse the spores and additional buffer was added to a final volume of 50 ml. Spore density was adjusted in distilled water blanks to that of a 0.5. McFarland nephelometer standard.
With the aid of the SGE Software the proper aqueous dilutions of each biocide or test blend were prepared and adjusted to a final volume of 10 ml. Then, 250 micro-liters of each biocide mixture was processed by the spiral plater.
The Autoplate 4000 mechanically applied mixtures of test fungicides to 150 MM malt agar plates using an exponential application gradient. Gradients of applied fungicides were allowed to completely diffuse into the surface of the agar (1 to 4 hours at room temperature 23° C.) before inoculating the plates with fungi. […]
Following incubation, visible growth of the test organism was observed on a portion of the radial streak and ended where the concentration of biocide was high enough to prevent growth. This growth endpoint was used by the SGE software to compute the exact MIC expressed as parts per million (PPM) of active fungicide. […]
Elisman, H. D. Sylwestrowicz and P. K. Mayer, in Applied Microbiology, 9:538 (1961) where: • Qa=the quantity of A used in a binary mixture that gives the desired effect. • QA=the quantity of A which when used alone gives the desired effect. • Qb=the quantity of B used in a binary mixture that gives the desired effect. • QB=the quantity of B which when used alone gives the desired effect.
The synergistic index (SI) for each mixture was determined by the equation SI=Qa/QA+Qb/QB.

[2] = test system: Streptoverticillium reticulans ATCC 25607 (pink stain organism); assay: ASTM E 1428-91 pink stain test of flexible PVC film; conditions: Table 3d, IPBC/Thiram in PVC film, 1000 ppm total; two weeks 28° C.; 0 no stain, 1 trace <10%, 2 slight 10-30%, 3 moderate 30-50%, 4 heavy >50% coverage; average of triplicate
Description: In this example a PVC formulation for flexible vinyl film was used as the test medium.
Five blends were prepared by adding the appropriate amount of the biocide to separate vinyl film form formulations prepared according to Table 3a.
Difco malt agar was prepared using manufacturers directions. Sterilized agar (30 ML) was poured into sterile plastic 100 mm Petri dishes to provide a solidified agar layer sufficient to nourish the test organism for the duration of the test.
Following inoculation of the agar, a sterile forceps was used to place the test specimen, previously sterilized by a brief dip in boiling water, on the agar. Each test blend was run in triplicate and the result represents the average of the three. The specimen was gently pressed on the surface of the agar to insure good contact. The Petri dishes were covered and incubated for two weeks in a 28° C. incubator.
Following incubation, samples were lifted from the surface of the agar and both sides were examined against a white background for presence of pink staining.
Degree of staining reported was determined by the area of the sample stained rather than by intensity of the color. […]

[3] = test system: Aspergillus niger; assay: Fungal growth on acrylic/vinyl acrylic white house paint film on filter paper; type: cell-based; conditions: 0.06% actives in paint, four weeks 28° C., scale 1 (no growth touching square) to 15 (totally covered), average of at least 3 runs
Description: In this example an acrylic, vinyl acrylic white house paint was used as the test medium.
Test formulations of the actives were prepared for each of the biocide blends to be tested (see tables 2b and 2c) by weighing the appropriate amounts of actives and adding them to the test paint so that in each test formulation the weight of the actives was 20% of the sample and 80% of the sample was paint. Each mixture was then stirred to achieve a homogeneous mixture. These test formulations were then incorporated into the test paint at the rate of 0.3% w/w, i.e. the final level of actives in the paint was 0.06%.
The test paints were then applied to a filter paper using a standard 3-mil drawdown bar to insure uniformity of the film. Samples were then dried at room temperature, and placed on agar contained in a Petri dish. The filter papers were then inoculated with a test inoculum of Aspergillus niger. Inoculated filter papers containing the test paints were placed in a constant temperature (28° C.) fungal incubator for four weeks. At the end of the incubation, fungal growth on each test paint was measured and recorded.
Each test blend was run at least 3 times and each result represents the average of the runs.

| SMILES | QB (quantity of B which when used alone gives the desired effect) ([1]; MIC of Thiram alone (Table 1b)) | Pink Stain Rating [2] | Fungal Growth ([3]; Table 2c, IPBC/Thiram) | QA (quantity of A which when used alone gives the desired effect) ([1]; MIC of IPBC alone (Table 1a)) | QA (quantity of A which when used alone gives the desired effect) ([1]; MIC of IPBC alone (Table 1b)) | Fungal Growth ([3]; Table 2b, IPBC/Ziram) |
| --- | --- | --- | --- | --- | --- | --- |
| CN(C)C(=S)SSC(=S)N(C)C [Thiram, bis(dimethylthiocarbamoyl) disulfide] | 26.73 ppm | 2.0 | 13.8 fungus units |  |  |  |
| CCCCNC(=O)OCC#CI [IPBC, 3-iodo-2-propynyl butyl carbamate] |  |  | 2.8 fungus units | 1.08 ppm | 1.08 ppm | 7.8 fungus units |

Source: patent publication US20050049224A1, “Antimicrobial mixtures comprising iodopropynyl compounds and dimethyldithiocarbamate derivatives” (priority 2003, published 2005)
